Measured values taken from paper PMC12656546, “Enterohepatic Recirculation-Mediated Reabsorption of Aristolochic Acid I: Revealed by Toxicokinetics and Metabolite Identification in Rats” (Toxics, 2025).
Where “and” joins values, the source holds several entries; their conditions need not be identical. Equal values may be shown once. Read-outs that look alike come from different tables or passages of the source.

Experiment: Toxicokinetic study of AAI after single oral administration (plasma, UPLC-QQQ-MS/MS, NCA)
Type: in vivo, F344 rats
Details: for tmax: read-out: tmax
Experimental: For toxicokinetic study, forty-eight […] F344 rats (specific pathogen-free grade) were enrolled in the study, with equal numbers of males and females. All rats were purchased from Charles River Laboratory (Raleigh, NC, USA). All rats were confirmed to be healthy based on a series of physical health examinations. Rats were acclimated for 5 days at a temperature of 20–26 °C, humidity of 40–70% and a 12 h light/dark circle. The rats were randomly divided into four groups (n = 12 per group), with equal numbers of males and females in each group. The allocation was performed separately for each sex (female and male) based on body weight using a stratified randomization method. During the experiment, rats were fasted and had access to water ad libitum. To minimize confounding factors, treatments and measurements were randomized within each session. Cages from different groups were evenly distributed across racks in the same room to reduce bias from light and temperature. This study was approved by the Institutional Animal Care and Use Committee (IACUC) of the National Drug Safety Evaluation Center (Approval No. IACUC-2024-K011, 20 September 2024).
During the experiment, each rat received a single oral administration via gastric gavage. Rats in the control group were administered with 0.5% sodium carboxymethyl cellulose (CMC-Na) suspension. For the treatment groups, rats were administered with gavage solution containing 10, 30 and 100 mg/kg of AAI. The gavage solution was prepared by uniformly dispersing the reference standard of AAI in the 0.5% CMC-Na solution. After oral administration, blood samples were collected from the postorbital vein plex of rats and immediately placed in EDTA tubes. To capture potential reabsorption which might occur long after AAI administration, 15 blood sampling time points were established for each dose group. A sparse sampling approach was employed to avoid excessive blood loss in each rat. For each dosage, 12 rats were subdivided into two groups. For the first group, blood samples were collected from 6 rats at 10, 30, 60, 90, 120, 240, 420, and 600 min after AAI administration; for the second group, blood samples were collected from these 6 rats at 12, 14, 16, 18, 20, 22, and 24 h after AAI administration. Therefore, the experimental design ensured that six biological replicates were obtained for each sampling time point, enabling robust toxicokinetic analysis.
Rat plasma samples were prepared as follows: Blood was centrifuged at 13,200 rpm for 10 min. Then, 25 μL of retrieved plasma was transferred to 2 mL centrifuge tubes, followed by the addition of 75 μL of methanol/acetonitrile solution (v/v, 1∶1) containing indomethacin as internal standard (IS). After vortexing for 2 min and centrifugation for 10 min at 13,200 rpm, the supernatant was used as study samples for quantitative analysis. Quality control samples (QCs) and calibration standards were prepared by spiking blank plasma with different concentrations of AAI standard solution. The QCs and calibration standards were processed using identical procedures as the study samples.
A method of ultra-performance liquid chromatography coupled with triple quadrupole tandem mass spectrometry (UPLC-QQQ-MS/MS) was developed to achieve the quantitation of AAI in rat plasma. The LC-MS/MS analysis was performed using an Acquity UPLC I-Class system coupled with an Xevo TQ XS spectrometer (Waters, Milford, MA, USA). An Acquity UPLC BEH C18 column (2.1 mm × 50 mm, 1.7 μm, Waters, Milford, MA, USA) was employed for chromatographic separation. The mobile phases consisted of water containing 5 mmol/L ammonium formate/0.1% formic acid (A) and acetonitrile (B). The gradient elution was set as follows: 1–4 min, 10–90% B; 4–5 min, 90% B; 5–5.01 min, 90–10% B; 5.01–7 min, 10% B. The flow rate was set at 0.4 mL/min. The column temperature was maintained at 40 °C. A sample volume of 2 μL was injected for analysis. […]

[1] = 10 mg/kg single oral, rat plasma, mean ± SD
[2] = 30 mg/kg single oral, rat plasma, mean ± SD
[3] = 100 mg/kg single oral, rat plasma, mean ± SD
[4] = both sexes, F344, rat, plasma, po, 10 mg/kg, 10 mg/kg single oral, rat plasma, mean ± SD
[5] = both sexes, F344, rat, plasma, po, 30 mg/kg, 30 mg/kg single oral, rat plasma, mean ± SD
[6] = both sexes, F344, rat, plasma, po, 30 mg/kg, medium-dose (30 mg/kg), individual pooled profiles (animal pairs), Table S4
[7] = both sexes, F344, rat, plasma, po, 100 mg/kg, 100 mg/kg single oral, rat plasma, mean ± SD
[8] = high-dose (100 mg/kg), individual pooled profiles (animal pairs), Table S4, 100 mg/kg

**Q.** Which results are given for `COc1cccc2c1cc([N+](=O)[O-])c1c(C(=O)O)cc3c(c12)OCO3` [AAI, Aristolochic acid I]?
**A.** CL/F [1]: 1.66 ± 0.37 L/h; Vd [1]: 3.36 ± 1.97 L; CL/F [2]: 1.22 ± 0.30 L/h; Vd [2]: 4.67 ± 0.81 L; CL/F [3]: 1.13 ± 0.59 L/h; Vd [3]: 8.42 ± 7.24 L; AUC(0-t) (F344, rat, plasma, po, 10 mg/kg, low-dose (10 mg/kg), individual pooled profiles (animal pairs), Table S4): 843 ng·h/mL; Cmax (F344, rat, plasma, po, 10 mg/kg, low-dose (10 mg/kg), individual pooled profiles (animal pairs), Table S4, read-out: Cmax): 562 ng/mL; AUC(0-t) [4]: 969 ± 140 ng·h/mL; half-life [4]: 1.31 ± 0.51 h; Cmax (both sexes, F344, rat, plasma, po, 10 mg/kg, 10 mg/kg single oral, rat plasma, mean ± SD, read-out: Cmax): 457 ± 129 ng/mL; tmax [4]: 0.69 ± 0.6 h; concentration at 14 h (both sexes, F344, rat, plasma, po, 10 mg/kg, low-dose (10 mg/kg oral), 14 h, individual rats M104,M105,M106,F104,F105,F106, below LLOQ set to zero): 0 ng/mL; concentration at 16 h (both sexes, F344, rat, plasma, po, 10 mg/kg, low-dose (10 mg/kg oral), 16 h, individual rats M104,M105,M106,F104,F105,F106, below LLOQ set to zero): 0 ng/mL; concentration at 18 h (both sexes, F344, rat, plasma, po, 10 mg/kg, low-dose (10 mg/kg oral), 18 h, individual rats M104,M105,M106,F104,F105,F106, below LLOQ set to zero): 0 ng/mL; concentration at 20 h (both sexes, F344, rat, plasma, po, 10 mg/kg, low-dose (10 mg/kg oral), 20 h, individual rats M104,M105,M106,F104,F105,F106, below LLOQ set to zero): 0 ng/mL; concentration at 22 h (both sexes, F344, rat, plasma, po, 10 mg/kg, low-dose (10 mg/kg oral), 22 h, individual rats M104,M105,M106,F104,F105,F106, below LLOQ set to zero): 0 ng/mL; concentration at 24 h (both sexes, F344, rat, plasma, po, 10 mg/kg, low-dose (10 mg/kg oral), 24 h, individual rats M104,M105,M106,F104,F105,F106, below LLOQ set to zero): 0 ng/mL; AUC(0-t) (both sexes, F344, rat, plasma, po, 10 mg/kg, low-dose (10 mg/kg), individual pooled profiles (animal pairs), Table S4): 825 ng·h/mL; AUC(0-t) [5]: 3950 ± 543 ng·h/mL; half-life [5]: 2.79 ± 0.74 h; Cmax (both sexes, F344, rat, plasma, po, 30 mg/kg, 30 mg/kg single oral, rat plasma, mean ± SD, read-out: Cmax): 2450 ± 561 ng/mL; tmax [5]: 0.58 ± 0.17 h; concentration at 1.5 h (both sexes, F344, rat, plasma, po, 30 mg/kg, medium-dose (30 mg/kg oral), 1.5 h, individual rats M201,M202,M203,F201,F202,F203): 413 ng/mL; AUC(0-t) [6]: 3450 ng·h/mL; tmax [6]: 0.5 h; AUC(0-t) [7]: 17100 ng·h/mL; half-life [7]: 3.01 ± 0.45 h; Cmax (both sexes, F344, rat, plasma, po, 100 mg/kg, 100 mg/kg single oral, rat plasma, mean ± SD, read-out: Cmax): 9110 ± 2180 ng/mL; tmax [7]: 1.17 ± 0.37 h; Cmax (both sexes, F344, rat, plasma, po, 100 mg/kg, high-dose (100 mg/kg), individual pooled profiles (animal pairs), Table S4, read-out: Cmax): 9010 ng/mL; tmax (both sexes, F344, rat, plasma, po, 100 mg/kg, high-dose (100 mg/kg), individual pooled profiles (animal pairs), Table S4): 2 h; secondary elevation of plasma AAI concentration, time post-administration (high- and medium-dose groups (100, 30 mg/kg oral)): 14 to 24 h; AUC0→t [8]: 17484.11 ng·h/mL and 17260.39 ng·h/mL and 32135.80 ng·h/mL and 9262.46 ng·h/mL and 9698.81 ng·h/mL and 16821.21 ng·h/mL; CL/F [8]: 0.76 L/h and 0.74 L/h and 0.40 L/h and 2.04 L/h and 1.79 L/h and 1.07 L/h; Cmax [8]: 9980.23 ng/mL and 12351.60 ng/mL and 6490.96 ng/mL and 6245.89 ng/mL and 10563.14 ng/mL
